Where a SMILES comes first, the peptide text is derived from it. Where no end group is shown, it is not given here. [ ]: non-standard residue; d: D form. The star is where a group is joined. Ac6c = NC1(C(=O)O)CCCCC1; X1 = CCCN1C(=O)CC(*)C1=O; Ac5c = NC1(C(=O)O)CCCC1; Aib = CC(C)(N)C(=O)O
Experiments:
[1] = Human plasma half-life assay; format: in vitro ADME; settings: human plasma, 37° C., LC-MS; read-out: Human Plasma T½ (converted)
Experimental: (§1) B. Human and Rat Plasma Half-Life Assay
(§2) 50 μL was removed at various times, like at 0, 1, 2, 3, 4, 8, 24, 32, 48, 56, 72 hours, mixed with 5 μL formic acid and 150 μL acetonitrile in a microcentrifuge tube, vertexed, and centrifuged for 10 minutes at 10K rpm. The supernatant was transferred to an injection vial and analyzed by LC-MS. The LC-MS system consisted of an API4000 mass spectrometer with an ESI probe. Positive ion mode and full scan detection were used. HPLC separation was carried out on a Luna 3μ C8 (2), 2×30 mm column with a gradient from 90% A to 90% B in 10 minutes at a flow rate of 0.3 ml/min. Buffer A was 1% formic acid in water and buffer B was 1% formic acid acetonitrile.

[2] = Rat plasma half-life assay; format: in vitro ADME; settings: rat plasma, 37° C., LC-MS; read-out: Rat Plasma T½ (converted)
Experimental: as §1, §2

Molecule	half-life at 0.1 mg/ml [1] [h]	half-life at 0.1 mg/ml [2] [h]
CC[C@H](C)[C@H](NC(=O)[C@H](CO)NC(=O)[C@H](Cc1ccc(O)cc1)NC(=O)[C@H](CC(=O)O)NC(=O)[C@H](CO)NC(=O)[C@@H](NC(=O)[C@H](Cc1ccccc1)NC(=O)C1(NC(=O)CNC(=O)[C@H](CCC(=O)O)NC(=O)C(C)(C)NC(=O)[C@@H](N)Cc2ccc(O)cc2)CCCC1)[C@@H](C)CC)C(=O)N[C@@H](C)C(=O)N[C@@H](CCSC)C(=O)N[C@@H](CC(=O)O)C(=O)N[C@@H](CCCCN)C(=O)N[C@H](C(=O)N[C@@H](Cc1c[nH]cn1)C(=O)N[C@@H](CCC(N)=O)C(=O)N[C@@H](CCC(N)=O)C(=O)N[C@@H](CC(=O)O)C(=O)N[C@@H](Cc1ccccc1)C(=O)N[C@H](C(=O)N[C@@H](CC(N)=O)C(=O)N[C@@H](Cc1c[nH]c2ccccc12)C(=O)N[C@@H](CC(C)C)C(=O)N[C@@H](CC(C)C)C(=O)N[C@@H](C)C(=O)N[C@@H](CCC(N)=O)C(=O)N[C@@H](CCCCN)C(N)=O)C(C)C)[C@@H](C)CC [Example 11, (Aib^2, A5c^5)hGIP(1-30)-NH2]	44.4	> 48
CC[C@H](C)[C@H](NC(=O)[C@H](CO)NC(=O)[C@H](Cc1ccc(O)cc1)NC(=O)[C@H](CC(=O)O)NC(=O)[C@H](CO)NC(=O)C1(NC(=O)[C@H](Cc2ccccc2)NC(=O)[C@@H](NC(=O)CNC(=O)[C@H](CCC(=O)O)NC(=O)C(C)(C)NC(=O)[C@@H](N)Cc2ccc(O)cc2)[C@@H](C)O)CCCC1)C(=O)N[C@@H](C)C(=O)N[C@@H](CCSC)C(=O)N[C@@H](CC(=O)O)C(=O)N[C@@H](CCCCN)C(=O)N[C@H](C(=O)N[C@@H](Cc1c[nH]cn1)C(=O)N[C@@H](CCC(N)=O)C(=O)N[C@@H](CCC(N)=O)C(=O)N[C@@H](CC(=O)O)C(=O)N[C@@H](Cc1ccccc1)C(=O)N[C@H](C(=O)N[C@@H](CC(N)=O)C(=O)N[C@@H](Cc1c[nH]c2ccccc12)C(=O)N[C@@H](CC(C)C)C(=O)N[C@@H](CC(C)C)C(=O)N[C@@H](C)C(=O)N[C@@H](CCC(N)=O)C(=O)N[C@@H](CCCCN)C(N)=O)C(C)C)[C@@H](C)CC [Example 12, (Aib^2, A5c^7)hGIP(1-30)-NH2]	20.5	> 48
CC[C@H](C)[C@H](NC(=O)[C@H](CCCCN)NC(=O)[C@H](CC(=O)O)NC(=O)[C@H](CCSC)NC(=O)[C@H](C)NC(=O)C1(NC(=O)[C@H](CO)NC(=O)[C@H](Cc2ccc(O)cc2)NC(=O)[C@H](CC(=O)O)NC(=O)[C@H](CO)NC(=O)[C@@H](NC(=O)[C@H](Cc2ccccc2)NC(=O)[C@@H](NC(=O)CNC(=O)[C@H](CCC(=O)O)NC(=O)C(C)(C)NC(=O)[C@@H](N)Cc2ccc(O)cc2)[C@@H](C)O)[C@@H](C)CC)CCCC1)C(=O)N[C@@H](Cc1c[nH]cn1)C(=O)N[C@@H](CCC(N)=O)C(=O)N[C@@H](CCC(N)=O)C(=O)N[C@@H](CC(=O)O)C(=O)N[C@@H](Cc1ccccc1)C(=O)N[C@H](C(=O)N[C@@H](CC(N)=O)C(=O)N[C@@H](Cc1c[nH]c2ccccc12)C(=O)N[C@@H](CC(C)C)C(=O)N[C@@H](CC(C)C)C(=O)N[C@@H](C)C(=O)N[C@@H](CCC(N)=O)C(=O)N[C@@H](CCCCN)C(N)=O)C(C)C [Example 13, (Aib^2, A5c^12)hGIP(1-30)-NH2] (H-Y[Aib]EGTFISDYS[Ac5c]AMDKIHQQDFVNWLLAQK-NH2; N-terminus assumed)	35.4	> 48
CC[C@H](C)[C@H](NC(=O)[C@H](CO)NC(=O)[C@H](Cc1ccc(O)cc1)NC(=O)[C@H](CC(=O)O)NC(=O)[C@H](CO)NC(=O)[C@@H](NC(=O)[C@H](Cc1ccccc1)NC(=O)[C@@H](NC(=O)C(C)(C)NC(=O)[C@H](CCC(=O)O)NC(=O)C(C)(C)NC(=O)[C@@H](N)Cc1ccc(O)cc1)[C@@H](C)O)[C@@H](C)CC)C(=O)N[C@@H](C)C(=O)N[C@@H](CCSC)C(=O)N[C@@H](CC(=O)O)C(=O)N[C@@H](CCCCN)C(=O)N[C@H](C(=O)N[C@@H](Cc1c[nH]cn1)C(=O)N[C@@H](CCC(N)=O)C(=O)N[C@@H](CCC(N)=O)C(=O)N[C@@H](CC(=O)O)C(=O)N[C@@H](Cc1ccccc1)C(=O)N[C@H](C(=O)N[C@@H](CC(N)=O)C(=O)N[C@@H](Cc1c[nH]c2ccccc12)C(=O)N[C@@H](CC(C)C)C(=O)N[C@@H](CC(C)C)C(=O)N[C@@H](C)C(=O)N[C@@H](CCC(N)=O)C(=O)N[C@@H](CCCCN)C(N)=O)C(C)C)[C@@H](C)CC [Example 14, (Aib^2, 4)hGIP(1-30)-NH2]	34.8	48
CC[C@H](C)[C@H](NC(=O)[C@H](CO)NC(=O)[C@H](Cc1ccc(O)cc1)NC(=O)[C@H](CC(=O)O)NC(=O)[C@H](CO)NC(=O)[C@@H](NC(=O)[C@H](Cc1ccccc1)NC(=O)C(C)(C)NC(=O)CNC(=O)[C@H](CCC(=O)O)NC(=O)C(C)(C)NC(=O)[C@@H](N)Cc1ccc(O)cc1)[C@@H](C)CC)C(=O)N[C@@H](C)C(=O)N[C@@H](CCSC)C(=O)N[C@@H](CC(=O)O)C(=O)N[C@@H](CCCCN)C(=O)N[C@H](C(=O)N[C@@H](Cc1c[nH]cn1)C(=O)N[C@@H](CCC(N)=O)C(=O)N[C@@H](CCC(N)=O)C(=O)N[C@@H](CC(=O)O)C(=O)N[C@@H](Cc1ccccc1)C(=O)N[C@H](C(=O)N[C@@H](CC(N)=O)C(=O)N[C@@H](Cc1c[nH]c2ccccc12)C(=O)N[C@@H](CC(C)C)C(=O)N[C@@H](CC(C)C)C(=O)N[C@@H](C)C(=O)N[C@@H](CCC(N)=O)C(=O)N[C@@H](CCCCN)C(N)=O)C(C)C)[C@@H](C)CC [Example 15, (Aib^2, 5)hGIP(1-30)-NH2]	28.6	46.5
CC[C@H](C)[C@H](NC(=O)[C@H](CO)NC(=O)[C@H](Cc1ccc(O)cc1)NC(=O)[C@H](CC(=O)O)NC(=O)[C@H](CO)NC(=O)C(C)(C)NC(=O)[C@H](Cc1ccccc1)NC(=O)[C@@H](NC(=O)CNC(=O)[C@H](CCC(=O)O)NC(=O)C(C)(C)NC(=O)[C@@H](N)Cc1ccc(O)cc1)[C@@H](C)O)C(=O)N[C@@H](C)C(=O)N[C@@H](CCSC)C(=O)N[C@@H](CC(=O)O)C(=O)N[C@@H](CCCCN)C(=O)N[C@H](C(=O)N[C@@H](Cc1c[nH]cn1)C(=O)N[C@@H](CCC(N)=O)C(=O)N[C@@H](CCC(N)=O)C(=O)N[C@@H](CC(=O)O)C(=O)N[C@@H](Cc1ccccc1)C(=O)N[C@H](C(=O)N[C@@H](CC(N)=O)C(=O)N[C@@H](Cc1c[nH]c2ccccc12)C(=O)N[C@@H](CC(C)C)C(=O)N[C@@H](CC(C)C)C(=O)N[C@@H](C)C(=O)N[C@@H](CCC(N)=O)C(=O)N[C@@H](CCCCN)C(N)=O)C(C)C)[C@@H](C)CC [Example 16, (Aib^2, 7)hGIP(1-30)-NH2]	43.9	> 48
CC[C@H](C)[C@H](NC(=O)[C@H](CO)NC(=O)[C@H](Cc1ccc(O)cc1)NC(=O)C(C)(C)NC(=O)[C@H](CO)NC(=O)[C@@H](NC(=O)[C@H](Cc1ccccc1)NC(=O)[C@@H](NC(=O)CNC(=O)[C@H](CCC(=O)O)NC(=O)C(C)(C)NC(=O)[C@@H](N)Cc1ccc(O)cc1)[C@@H](C)O)[C@@H](C)CC)C(=O)N[C@@H](C)C(=O)N[C@@H](CCSC)C(=O)N[C@@H](CC(=O)O)C(=O)N[C@@H](CCCCN)C(=O)N[C@H](C(=O)N[C@@H](Cc1c[nH]cn1)C(=O)N[C@@H](CCC(N)=O)C(=O)N[C@@H](CCC(N)=O)C(=O)N[C@@H](CC(=O)O)C(=O)N[C@@H](Cc1ccccc1)C(=O)N[C@H](C(=O)N[C@@H](CC(N)=O)C(=O)N[C@@H](Cc1c[nH]c2ccccc12)C(=O)N[C@@H](CC(C)C)C(=O)N[C@@H](CC(C)C)C(=O)N[C@@H](C)C(=O)N[C@@H](CCC(N)=O)C(=O)N[C@@H](CCCCN)C(N)=O)C(C)C)[C@@H](C)CC [Example 18, (Aib^2, 9)hGIP(1-30)-NH2] (H-Y[Aib]EGTFIS[Aib]YSIAMDKIHQQDFVNWLLAQK-NH2; N-terminus assumed)	11.3	44.4
CC[C@H](C)[C@H](NC(=O)[C@H](CCCCN)NC(=O)[C@H](CC(=O)O)NC(=O)[C@H](CCSC)NC(=O)[C@H](C)NC(=O)[C@@H](NC(=O)C(C)(C)NC(=O)[C@H](Cc1ccc(O)cc1)NC(=O)[C@H](CC(=O)O)NC(=O)[C@H](CO)NC(=O)[C@@H](NC(=O)[C@H](Cc1ccccc1)NC(=O)[C@@H](NC(=O)CNC(=O)[C@H](CCC(=O)O)NC(=O)C(C)(C)NC(=O)[C@@H](N)Cc1ccc(O)cc1)[C@@H](C)O)[C@@H](C)CC)[C@@H](C)CC)C(=O)N[C@@H](Cc1c[nH]cn1)C(=O)N[C@@H](CCC(N)=O)C(=O)N[C@@H](CCC(N)=O)C(=O)N[C@@H](CC(=O)O)C(=O)N[C@@H](Cc1ccccc1)C(=O)N[C@H](C(=O)N[C@@H](CC(N)=O)C(=O)N[C@@H](Cc1c[nH]c2ccccc12)C(=O)N[C@@H](CC(C)C)C(=O)N[C@@H](CC(C)C)C(=O)N[C@@H](C)C(=O)N[C@@H](CCC(N)=O)C(=O)N[C@@H](CCCCN)C(N)=O)C(C)C [Example 19, (Aib^2, 11)hGIP(1-30)-NH2] (H-Y[Aib]EGTFISDY[Aib]IAMDKIHQQDFVNWLLAQK-NH2; N-terminus assumed)	27.2	> 48
Y[Aib]EGTF[Ac6c]SDYSIAMDKIHQQDFVNWLLAQKGKKNDWKHC(X1)ITQ-OH [Example 79, [Aib^2, A6c^7, Cys(Psu)^39]hGIP(1-42)-OH]		14.3
